Data as given in US20160311788A1, “Antifouling Compounds And Use Thereof” (National University of Singapore, priority 2008, published 2016).
Read-outs that look alike come from different tables or passages of the source.

Key:
[1] = test system: marine bacteria strain S16; assay: disc inhibition assay, strain S16; type: cell-based, Pseudoalteromonas piscicida; settings: for zone of inhibition at 50 µg/disc: Pseudoalteromonas piscicida, S16, 24 h; for antibacterial activity in words: strain S16
Description: (§1) The disc inhibition assay was used. This assay is a conventional method routinely used for screening antibacterial compounds to determine degree of susceptibility to antibacterial compounds. The diameter of the zone of inhibition is proportional to the degree of susceptibility of the bacterial strain. The compounds were tested against 13 strains of marine bacteria isolated from Singapore coastal waters.
(§2) 13 strains of marine bacteria were isolated from fouling communities located in the coastal waters around Singapore. These were characterized in earlier studies and reported in Teo et al. (U.S. patent application Ser. No. 11/265,833) and Choong et al (in prep). In addition, four reference bacterial strains were added tested: Escherichia coli (Strain K12, ATCC 15222), E. coli (strain DH5a), Pseudomonas aeruginosa (strain LMG 12228; ATCC 15692) and P. putida (strain KT2440; ATCC 47054). All the bacteria were also tested against five antibiotics: ampicillin (AMP), tetracycline (TETR), erythromycin (ERY), chloramphenicol (CHL) and streptomycin (STREP).
(§3) Disks comprising the compounds to be tested were prepared as follows. The antibacterial assay, the pure compounds were made up to a concentration of 2 mgml^−1 in DMSO. 25 μl of the stock was pipetted onto each 6 mm sterile disc (Macherey-Nagel #484000) to obtain 50 μg of compound per disc. Equivalent volume of DMSO was used inoculated for the control.
(§4) For all disk inhibition assays, bacterial cultures were grown in marine broth (Pronadisa #1217.00). Sterile swabs dipped into the cultures were used to inoculate Marine Agar plates with a bacterial lawn by smearing the culture over the surface. After inoculating the plates, discs with antibiotics, pharmaceuticals or control blanks were placed on each plate. Each concentration of antibiotic or pharmaceutical was tested with two replicates. After the disks were placed on the agar surface, plates were incubated overnight in the dark at 35° C. After incubation, plates were examined for zones of inhibition or clearing around control and treated disks. The diameter of any zone of clearing or inhibition was measured using Vernier calipers. There were two replicates per treatment, and the average was taken.

[2] = test system: marine bacteria strain S14; assay: disc inhibition assay, strain S14; type: cell-based, Vibrio probioticus; settings: strain 14, 50 μg of compound per disc
Description: as §1, §2
(§5) Disks comprising the compounds to be tested were prepared as follows. The antibacterial assay, the pure compounds were made up to a concentration of 2 mgml^−1 in DMSO. […] Equivalent volume of DMSO was used inoculated for the control.
as §4

[3] = test system: marine bacteria strain S29; assay: disc inhibition assay, strain S29; type: cell-based, Bacillus hwajinpoensis; settings: for zone of inhibition at 50 µg/disc: Guptibacillus hwajinpoensis, S29, 24 h
Description: as §1, §2, §3, §4

[4] = test system: marine bacteria strain S9; assay: disc inhibition assay, strain S9; type: cell-based, Bacillus algicola; settings: for zone of inhibition at 50 µg/disc: Guptibacillus algicola, S9, 24 h
Description: as §1, §2, §3, §4

[5] = test system: marine bacteria strain S30; assay: disc inhibition assay, strain S30; type: cell-based, Bacillus borophilicus; settings: for zone of inhibition at 50 µg/disc: Bacillus, S30, 24 h
Description: as §1, §2, §3, §4

[6] = test system: marine bacteria strain S4; assay: disc inhibition assay, strain S4; type: cell-based, Bacillus algicola; settings: for zone of inhibition at 50 µg/disc: Guptibacillus algicola, S4, 24 h
Description: as §1, §2, §3, §4

[7] = test system: marine bacteria strain S10; assay: disc inhibition assay, strain S10; type: cell-based, Halobacillus trueperi; settings: for zone of inhibition at 50 µg/disc: Halobacillus trueperi, S10, 24 h
Description: as §1, §2, §3, §4

[8] = test system: marine bacteria strain S18; assay: disc inhibition assay, strain S18; type: cell-based, Microbacterium esteraromaticum; settings: for zone of inhibition at 50 µg/disc: Microbacterium esteraromaticum, S18, 24 h
Description: as §1, §2, §5, §4

[9] = test system: marine bacteria strain S1; assay: disc inhibition assay, strain S1; type: cell-based, Rhodovulum iodosum; settings: for zone of inhibition at 50 µg/disc: Rhodovulum iodosum, S1
Description: as §1, §2, §3, §4

[10] = test system: marine bacteria strain S28; assay: disc inhibition assay, strain S28; type: cell-based, Arthrobacter protophormial; settings: for zone of inhibition at 50 µg/disc: Arthrobacter, S28, 24 h
Description: as §1, §2, §3, §4

[11] = test system: marine bacteria strain S27; assay: disc inhibition assay, strain S27; type: cell-based, Tenacibaculum lutimaris; settings: strain 27, 50 μg of compound per disc; for zone of inhibition at 50 µg/disc: Tenacibaculum lutimaris, S27, 24 h, read-out: zone of inhibition
Description: as §1, §2, §3, §4

[12] = test system: marine bacteria strain S3; assay: disc inhibition assay, strain S3; type: cell-based, Erythrobacter aquimaris; settings: for zone of inhibition at 50 µg/disc: Qipengyuania aquimaris, S3, 24 h
Description: as §1, §2, §3, §4

[13] = test system: marine bacteria strain S17; assay: disc inhibition assay, strain S17; type: cell-based, Gordonia terrae; settings: for zone of inhibition at 50 µg/disc: Gordonia terrae, S17, 24 h
Description: as §1, §2, §3, §4

[14] = strain 16, 50 μg of compound per disc
[15] = strain 29, 50 μg of compound per disc
[16] = strain 9, 50 μg of compound per disc
[17] = strain 30, 50 μg of compound per disc
[18] = strain 4, 50 μg of compound per disc
[19] = strain 10, 50 μg of compound per disc
[20] = strain 18, 50 μg of compound per disc
[21] = strain 1, 50 μg of compound per disc
[22] = strain 28, 50 μg of compound per disc
[23] = strain 3, 50 μg of compound per disc, read-out: zone of inhibition
[24] = strain 17, 50 μg of compound per disc
[25] = strain 3, 50 μg of compound per disc
[26] = strain 29, 50 μg of compound per disc, read-out: zone of inhibition
[27] = strain 9, 50 μg of compound per disc, read-out: zone of inhibition
[28] = strain 30, 50 μg of compound per disc, read-out: zone of inhibition
[29] = strain 4, 50 μg of compound per disc, read-out: zone of inhibition
[30] = strain 10, 50 μg of compound per disc, read-out: zone of inhibition
[31] = strain 18, 50 μg of compound per disc, read-out: zone of inhibition
[32] = strain 28, 50 μg of compound per disc, read-out: zone of inhibition
[33] = strain 17, 50 μg of compound per disc, read-out: zone of inhibition
[34] = strain 16, 50 μg of compound per disc, read-out: zone of inhibition

Row | SMILES | zone of inhibition [1, 14] | zone of inhibition [2] | zone of inhibition [3, 15] | zone of inhibition [4, 16] | zone of inhibition [5, 17] | zone of inhibition [6, 18] | zone of inhibition [7, 19] | zone of inhibition [8, 20] | zone of inhibition [9, 21] | zone of inhibition [10, 22] | zone of inhibition [11] | zone of inhibition at 50 µg/disc [12, 23] [mm] | zone of inhibition [13, 24] | zone of inhibition [12, 25] | zone of inhibition at 50 µg/disc [3, 26] [mm] | zone of inhibition at 50 µg/disc [7, 30] [mm] | other results
1 | O=C(C(c1ccccc1)c1ccccc1)N1CCC(O)(c2ccc(Cl)cc2)CC1 [Compound 4.3] | − | − | − | − | − | − | − | − | − | − | − | 2 to 5 | − |  |  |  | 
2 | CN(C)C(=O)C(CCN1CCCCC1)(c1ccccc1)c1ccccc1 [Compound 9.1, N, N-Dimethyl-2,2-diphenyl-4-(piperidin-1-yl)butanamide] | − | − | − |  | − | − | − |  | − | − | − |  | − | − |  |  | zone of inhibition at 50 µg/disc [4]: 2 to 5 mm; zone of inhibition at 50 µg/disc [8]: 2 to 5 mm
3 | CCCCC(C(=O)N1CCCCC1)c1ccccc1 (centres unmarked) [Compound 12.1, 2-Phenyl-1-(piperidin-1-yl)hexan-1-one] | − | − |  |  |  |  |  |  | − |  |  | 5 to 10 |  |  | 2 to 5 | 2 to 5 | zone of inhibition at 50 µg/disc [4, 27]: 2 to 5 mm; zone of inhibition at 50 µg/disc [5, 28]: 2 to 5 mm; zone of inhibition at 50 µg/disc [6, 29]: 2 to 5 mm; zone of inhibition at 50 µg/disc [8, 31]: 2 to 5 mm; zone of inhibition at 50 µg/disc [10, 32]: 2 to 5 mm; zone of inhibition at 50 µg/disc [11]: 2 to 5 mm; zone of inhibition at 50 µg/disc [13, 33]: 2 to 5 mm
4 | CN(C)C(=O)C(CC[N+]1(C)CCC(O)(c2ccc(Cl)cc2)CC1)(c1ccccc1)c1ccccc1 (centres unmarked) [Compound 4.7] |  | − |  |  |  |  |  |  | − |  | − |  |  |  |  |  | zone of inhibition at 50 µg/disc [1]: 2 to 5 mm; zone of inhibition at 50 µg/disc [3]: 5 to 10 mm; zone of inhibition at 50 µg/disc [4]: 5 to 10 mm; zone of inhibition at 50 µg/disc [5]: 2 to 5 mm; zone of inhibition at 50 µg/disc [6]: 5 to 10 mm; zone of inhibition at 50 µg/disc [7]: 5 to 10 mm; zone of inhibition at 50 µg/disc [8]: 2 to 5 mm; zone of inhibition at 50 µg/disc [10]: 5 to 10 mm; zone of inhibition at 50 µg/disc [12]: 5 to 10 mm; zone of inhibition at 50 µg/disc [13]: 2 to 5 mm
5 | C/C=C/C=C/C(=O)N1CCCCC1 [Compound 11.4] |  |  |  |  |  |  |  |  |  |  |  |  |  |  |  |  | antibacterial activity in words [1]: susceptible
6 | O=C(C(CCCCC(O)CO)c1ccccc1)N1CCCCC1 (centres unmarked) [Compound 12.5] | − | − |  | − | − | − | − | − | − | − | − |  | − | − | 2 to 5 |  | 
7 | COC1(c2ccc(Cl)cc2)CC[N+](C)(CCC(C(=O)N(C)C)(c2ccccc2)c2ccccc2)CC1 (centres unmarked) [Compound 5.2, N,O-dimethyl Loperamide] |  | − |  |  |  |  |  |  |  |  | − |  |  |  |  |  | zone of inhibition at 50 µg/disc [1]: 2 to 5 mm; zone of inhibition at 50 µg/disc [3]: 5 to 10 mm; zone of inhibition at 50 µg/disc [4]: 5 to 10 mm; zone of inhibition at 50 µg/disc [5]: 5 to 10 mm; zone of inhibition at 50 µg/disc [6]: 5 to 10 mm; zone of inhibition at 50 µg/disc [7]: 5 to 10 mm; zone of inhibition at 50 µg/disc [8]: > 10 mm; zone of inhibition at 50 µg/disc [9]: 2 to 5 mm; antibacterial activity in words ([9]; strain S1, text): had activity; zone of inhibition at 50 µg/disc [10]: 5 to 10 mm; zone of inhibition at 50 µg/disc [12]: 5 to 10 mm; zone of inhibition at 50 µg/disc [13]: 2 to 5 mm
8 | O=C(Cc1ccccc1)N1CCCCC1 [Compound 10.5] |  | − | − | − | − | − | − | − | − | − | − |  | − | − |  |  | zone of inhibition at 50 µg/disc [1, 34]: 5 to 10 mm
9 | CCCCCC(=O)N1CCCCC1 [Compound 11.1] |  | − | − | − | − | − | − | − | − | − | − |  | − | − |  |  | zone of inhibition at 50 µg/disc [1, 34]: 5 to 10 mm; antibacterial activity in words [1]: susceptible
10 | C=CCCCCC(C(=O)N1CCCCC1)c1ccccc1 (centres unmarked) [Compound 12.4] | − | − |  |  | − |  |  |  | − | − |  | > 10 |  |  | 2 to 5 | 2 to 5 | zone of inhibition at 50 µg/disc [4, 27]: 2 to 5 mm; zone of inhibition at 50 µg/disc [6, 29]: 2 to 5 mm; zone of inhibition at 50 µg/disc [8, 31]: 5 to 10 mm; zone of inhibition at 50 µg/disc [11]: 2 to 5 mm; zone of inhibition at 50 µg/disc [13, 33]: 2 to 5 mm
11 | C=CCCCCC(CCCC)C(=O)N1CCCCC1 (centres unmarked) [Compound 12.7] | − | − |  |  |  |  |  |  |  |  |  | > 10 |  |  | 2 to 5 | 5 to 10 | zone of inhibition at 50 µg/disc [4, 27]: 5 to 10 mm; zone of inhibition at 50 µg/disc [5, 28]: 2 to 5 mm; zone of inhibition at 50 µg/disc [6, 29]: 5 to 10 mm; zone of inhibition at 50 µg/disc [8, 31]: > 10 mm; zone of inhibition at 50 µg/disc ([9]; strain 1, 50 μg of compound per disc, read-out: zone of inhibition): 2 to 5 mm; zone of inhibition at 50 µg/disc [10, 32]: 2 to 5 mm; zone of inhibition at 50 µg/disc [11]: 2 to 5 mm; zone of inhibition at 50 µg/disc [13, 33]: 5 to 10 mm
12 | O=C(C(c1ccccc1)c1ccccc1)N1CCC(O)CC1 [Compound 9.3] |  | − | − | − | − | − |  | − | − | − | − |  | − | − |  | 2 to 5 | zone of inhibition at 50 µg/disc [1, 34]: 2 to 5 mm
